{
  "source": "patent US10034915B2",
  "about": "“Small heat shock proteins and active fragments thereof as a therapy for inflammation and ischemia” (The Board of Trustees of the Leland Stanford Junior …, priority 2011, dated 2018)",
  "key": {"HSPB5−/− EAE mice": {"system": "HSPB5−/− EAE mice", "conditions": "WT and HSPB5 deficient mice; previously published data; cited from earlier work"}, "brain T cells": {"system": "brain T cells", "test": "Brain T cell populations at 7 d after stroke (flow cytometry), wild-type mice", "format": "in vivo, mouse", "conditions": "vs PBS", "method": "The T cell populations in brain were analyzed at 7 d after stroke. […] However, when we quantitatively analyzed how many cytokine molecules existed per cell, we found fewer IL-17-PE molecules per CD3^+, CD4^+ and gd-T cells in Cryab-treated mice brains compared to PBS-treated ones (FIG. 15k, l)."}, "[1]": {"system": "pro-inflammatory cytokines of MOG stimulated splenocytes", "test": "Peripheral immune cell activation: cytokine production by MOG stimulated splenocytes of treated MOG immunized mice (ELISA)", "parameters": "species or system mouse", "conditions": "mice treated in vivo; splenocytes from MOG immunized mice", "method": "Peripheral immune cell activation and cytokine analysis. Spleens and lymph nodes were isolated from mice 9 days after immunization with MOG35-55 and CFA. Spleens were mechanically disrupted to isolate single cell splencytes suspension. Cells were cultured in flat bottomed, 96-well plates in media (RPMI 1640 supplemented with […] L-glutamine, 1 mM sodium pyruvate, 0.1 mM non-essential amino acids, 100 U/mL penicillin, 0.1 mg/mL streptomycin, 0.5 uM 2-mercaptoethanol, and 10% fetal calf serum). Cells were stimulated with MOG35-55 (5 ug/mL, 10 ug/mL, and 20 ug/mL). For all activation assays, splenocytes were pooled from three mice per group and triplicate wells were plated. Supernatants of cells were collected at the time of peak production for each cytokine (48 hrs: IL-2, IL-12p40, IL-6; 72 hrs: TNFα and IFNγ; 96 hrs: IL-17; 120 hrs: IL-10). Cytokines were measured in the supernatants using anti-mouse OPTEIA ELISA kits (BD Pharmingen for IFNγ, IL-10, IL-2, IL-6, and IL-12p40; R&D Systems for IL-17 and TNFα)."}, "[2]": {"system": "splenocytes stimulated with concanavalin A or LPS", "test": "Splenocyte cytokine response at 7 d after stroke, wild-type mice", "format": "in vivo, mouse", "conditions": "vs PBS", "method": "Effects of Cryab treatment on immune system. The effects of Cryab treatment on the splenocyte cytokine response were assessed at 7 d after stroke in wild-type mice. The total number of splenocytes in PBS and Cryab treated mice was equivalent at 7 d after stroke (data not shown). When stimulated by concanavalin A, splenocytes from Cryab treated mice produced fewer pro-inflammatory IL-2, IL-17, IFN-g, IL-12p40, IL-6 and more anti-inflammatory IL-10 than the splenocytes from PBS treated mice (FIG. 14d-i). When stimulated by LPS, Cryab-treated mice splenocytes produced fewer pro-inflammatory IL-6 and TNF than the splenocytes from PBS-treated mice (FIG. 14j, k)."}, "mice with EAE": {"system": "mice with EAE", "test": "EAE in C57BL/6J mice (MOG35-55/CFA, pertussis toxin), neurological impairment scoring", "format": "in vivo, mouse", "method": "It was tested if the chaperone function of residues 73-92 of HspB5 were capable of reducing the symptoms of experimental allergic encephalomyelist (EAE), by inducing EAE in 9-week old female C57BL/6J by immunized subcutaneously with an emulsion containing 200 μg myelin oligodendrocyte glycoprotein 35-55 (MOG35-55; […] (SEQ ID NO:24)) in saline and an equal volume of complete Freund's adjuvant. Intraperitoneal injection of pertussis toxin at 0 and 48 h post-immunization results in paralysis beginning at day 12."}, "EAE mice": {"system": "EAE mice", "test": "EAE in 129Sv WT mice immunized with MOG35-55/CFA, clinical scoring", "format": "in vivo, mouse", "conditions": "vs PBS", "method": "To investigate if the therapeutic efficacy of HSPB5 is a common feature of the whole family of small heat shock proteins, we expressed recombinant HSPB1, HSPB4, and HSPB5. We then treated EAE mice every other day starting at the peak of disease, when clinical paralysis is apparent, with an intraperitoneal (IP) administration of 10 μg of either HSPB1, HSPB4, HSPB5, or PBS as the vehicle control. […] Treating mice in vivo with HSPB1, HSPB4, or HSPB5 led to a reduction in the production of pro-inflammatory cytokines by MOG stimulated splenocytes taken from MOG immunized mice (FIG. 1c). Improvement of the clinical score was dependent on continued dosing of the sHSP. After dosing was stopped, symptoms returned, and paralysis worsened after 96 hours.\nTherapeutic Peptides from HSPB5 in EAE. […] We made a series of overlapping, 15-mer peptide fragments of HSPB5 and treated mice at the peak of disease with 10 μg of each peptide every other day, using HSPB5 as a positive control and PBS as a negative control.\nEAE induction and scoring. Mice were immunized subcutaneously with 100 μL of myelin oligodendrocyte glycoprotein (MOG) peptide 35-55 (2 mg/mL) and Complete Freund's adjuvant (CFA) (4 mg/mL) on Day 0. […] Mice were randomized at the peak of disease into the treatment groups where they received 10 ug/200 μL of sHSP, 1 μg/200 uL of sHSP peptide, or 200 μL of PBS (vehicle) every other day. Mice were scored every day on a clinical scoring system: 0, healthy mouse; 1, limp tail; 2, weak hindlimbs; 3, complete hindlimb paralysis; 4, weak forelimbs and paralyzed hindlimbs; 5, dead."}},
  "note": "“Also recorded” adds a separate entry of the source.",
  "data": [
    {"substance": "αB-crystallin [HSPB5]", "values": [
      {"measurement": "treatment of EAE by full-length protein", "setting": "HSPB5−/− EAE mice", "value": "able to treat not only WT mice, but also HSPB5 deficient mice"},
      {"measurement": "IL-17-PE molecules per CD3+, CD4+ and gd-T cells", "setting": "brain T cells; brain", "value": "fewer"},
      {"measurement": "number of IFN-g-PE molecules per CD3+ or CD4+ cells", "setting": "brain T cells; brain", "value": "no differences"},
      {"measurement": "percentages of IFN-g+ cells among CD3+ or CD4+ cells", "setting": "brain T cells; brain", "value": "no differences"},
      {"measurement": "percentages of IL-17+ cells among CD3+, CD4+ or gd-T cells", "setting": "brain T cells; brain", "value": "no differences"},
      {"measurement": "total number of the brain CD3+, CD4+, CD8+ and gd-T cells", "setting": "brain T cells", "value": "did not change"},
      {"measurement": "production of pro-inflammatory cytokines by MOG stimulated splenocytes", "setting": "[1]", "value": "reduction"},
      {"measurement": "IL-6 production by splenocytes", "setting": "[2]; LPS stimulation", "value": "fewer"},
      {"measurement": "TNF production by splenocytes", "setting": "[2]; LPS stimulation", "value": "fewer"},
      {"measurement": "IFN-g production by splenocytes", "setting": "[2]; concanavalin A stimulation", "value": "fewer"},
      {"measurement": "IL-2 production by splenocytes", "setting": "[2]; concanavalin A stimulation", "value": "fewer"},
      {"measurement": "IL-6 production by splenocytes", "setting": "[2]; concanavalin A stimulation", "value": "fewer"},
      {"measurement": "IL-10 production by splenocytes", "setting": "[2]; concanavalin A stimulation", "value": "more"},
      {"measurement": "IL-12p40 production by splenocytes", "setting": "[2]; concanavalin A stimulation", "value": "fewer"},
      {"measurement": "IL-17 production by splenocytes", "setting": "[2]; concanavalin A stimulation", "value": "fewer"},
      {"measurement": "total number of splenocytes", "setting": "[2]", "value": "equivalent"},
      {"measurement": "clinical paralysis / clinical scores of mice with EAE", "setting": "mice with EAE; intraperitoneal 10-50 μg every other day starting at the peak of disease", "value": "significant reduction of clinical paralysis"},
      {"measurement": "symptoms of EAE", "setting": "mice with EAE; intravenous administration", "value": "dramatic reduction of symptoms"},
      {"measurement": "symptoms after cessation of the administration", "setting": "mice with EAE; mouse, in vivo", "value": "returned soon after cessation"},
      {"measurement": "EAE clinical scores over the course of the whole experiment (area under the curve)", "setting": "EAE mice; 10 μg sHSP protein IP every other day from peak of disease", "value": "significantly improved"},
      {"measurement": "clinical paralysis / EAE clinical scores", "setting": "EAE mice; 10 μg sHSP protein IP every other day starting at the peak of disease", "value": "significantly ameliorated clinical paralysis; also recorded: therapeutic"}
    ]}
  ]
}
